Values of other authors, collected in patent US20170112865A1, “TREATMENT FOR MELANOMA” (The Board of Regents of the University of Texas System, priority 2014, published 2017).
Each block holds one compound with its values, some of them ahead of it.

Assays:
[1] = tested on: BRAFV600E/k mutant advanced or malignant melanoma
[2] = tested on: BRAF V600E mutation-positive advanced melanoma; details: human, in vivo
[3] = in vivo
[4] = in vivo; remark: listed apart in the source
melanoma = details: at 5 years

Compound: CC(=O)Nc1cccc(-n2c(=O)n(C3CC3)c(=O)c3c(Nc4ccc(I)cc4F)n(C)c(=O)c(C)c32)c1 [Trametinib]
Grade 3 adverse effect: hypertension ([1]; Trametinib arm): 12%
Grade 3 adverse effect: rash ([1]; Trametinib arm): 7%
most frequent adverse events ([1]; in vivo): skin rash, diarrhea, edema, hypertension, fatigue

Compound: CC(C)(C)c1nc(-c2cccc(NS(=O)(=O)c3c(F)cccc3F)c2F)c(-c2ccnc(N)n2)s1 [dabrafinib, Dabrafenib]
time within which resistance occurs [2]: 6 to 7 months

half-life [3]: about 36 hours
Compound: C[C@H]1O[C@@H](O[C@H]2[C@@H](O)C[C@H](O[C@H]3[C@@H](O)C[C@H](O[C@H]4CC[C@@]5(C)[C@H](CC[C@@H]6[C@@H]5C[C@@H](O)[C@]5(C)[C@@H](C7=CC(=O)OC7)CC[C@]65O)C4)O[C@@H]3C)O[C@@H]2C)C[C@H](O)[C@@H]1O [digoxin, Digoxin]
plasma concentration at which adverse effects are rare [4]: < 0.8 ng/mL

Compound: interferon
increase in survival (melanoma): 3%
